Ends that are not written are not given here.
Tested on: IgG and IgE antibodies to Fel d I, peptide X and peptide Y
Assay: Protocol P92-01 Phase I antibody studies and skin testing with the peptides (antigenicity)
Assay type: in vivo, human cat-allergic subjects
Settings: Week 8
Method: This Phase I, open-label, dose-escalating safety study was conducted to determine the safety of the administration of the peptide X (SEQ ID NO 1) and peptide Y (SEQ ID NO 2). The antigenicity of the components was also evaluated, as was the activity of the peptides in altering skin test sensitivity.
Safety was assessed by evaluations of clinical laboratory parameters, physical examination, antibody studies and adverse experiences. Activity was assessed by analysis of skin testing. Prick and intradermal skin testing with both affinity purified native Fel d I and the peptides were performed one week prior to, and two and six weeks following the treatment period. Sixteen patients were treated with peptides X and Y during the study. […] Adverse events recorded with the trial were typical of those seen in open label allergy studies. Patients were all cat allergic individuals in this trial and tolerated dose orders of magnitude higher than can be achieved with conventional immunotherapy.

Row | Sequence | skin test reaction to the peptide in a single patient
1 | KALPVVLENARILKNCVDAKMTEEDKE [peptide Y] | delayed local reaction
2 | KRDVDLFLTGTPDEYVEQVAQYKALPV [peptide X] | substantial skin test reaction
